Measured values taken from patent publication US5208227A, “Method, compositions, and compounds for modulating brain excitability” (priority 1991, dated 1993).
Read-outs that look alike come from different tables or passages of the source.

Legend:
[1] = system: GABA/benzodiazepine receptor-chloride ionopore complex (GBR complex); assay: modulation (inhibition) of [35S]TBPS binding; parameters: species or system rat (male Sprague-Dawley); MAXIMAL INHIBITION: unit not given here; settings: for MAXIMAL INHIBITION: [35S]TBPS binding; for MAXIMAL INHIBITION / CONTROL IC50 / IC50 / +5 μM GABA IC50: rat cerebral cortex; for CONTROL IC50 / IC50 / +5 μM GABA IC50: inhibition of 2 nM [35S]TBPS binding
Method: These procedures were performed as follows:
In these FIGS, (.circle.) represents control without bicuculline; represents 0.5 micromolar bicuculline; (.quadrature.) represents 1.0 micromolar bicuculline; represents 2.0 micromolar bicuculline; and (Δ) represents 3.0 micromolar bicuculline.

[2] = target: T1, progesterone receptor (Rattus norvegicus, UniProt Q63449); assay: [3H]R5020 binding to the progesterone receptor in rat uterus; settings: FIG. 5
T1 sequence (Q63449 1-923): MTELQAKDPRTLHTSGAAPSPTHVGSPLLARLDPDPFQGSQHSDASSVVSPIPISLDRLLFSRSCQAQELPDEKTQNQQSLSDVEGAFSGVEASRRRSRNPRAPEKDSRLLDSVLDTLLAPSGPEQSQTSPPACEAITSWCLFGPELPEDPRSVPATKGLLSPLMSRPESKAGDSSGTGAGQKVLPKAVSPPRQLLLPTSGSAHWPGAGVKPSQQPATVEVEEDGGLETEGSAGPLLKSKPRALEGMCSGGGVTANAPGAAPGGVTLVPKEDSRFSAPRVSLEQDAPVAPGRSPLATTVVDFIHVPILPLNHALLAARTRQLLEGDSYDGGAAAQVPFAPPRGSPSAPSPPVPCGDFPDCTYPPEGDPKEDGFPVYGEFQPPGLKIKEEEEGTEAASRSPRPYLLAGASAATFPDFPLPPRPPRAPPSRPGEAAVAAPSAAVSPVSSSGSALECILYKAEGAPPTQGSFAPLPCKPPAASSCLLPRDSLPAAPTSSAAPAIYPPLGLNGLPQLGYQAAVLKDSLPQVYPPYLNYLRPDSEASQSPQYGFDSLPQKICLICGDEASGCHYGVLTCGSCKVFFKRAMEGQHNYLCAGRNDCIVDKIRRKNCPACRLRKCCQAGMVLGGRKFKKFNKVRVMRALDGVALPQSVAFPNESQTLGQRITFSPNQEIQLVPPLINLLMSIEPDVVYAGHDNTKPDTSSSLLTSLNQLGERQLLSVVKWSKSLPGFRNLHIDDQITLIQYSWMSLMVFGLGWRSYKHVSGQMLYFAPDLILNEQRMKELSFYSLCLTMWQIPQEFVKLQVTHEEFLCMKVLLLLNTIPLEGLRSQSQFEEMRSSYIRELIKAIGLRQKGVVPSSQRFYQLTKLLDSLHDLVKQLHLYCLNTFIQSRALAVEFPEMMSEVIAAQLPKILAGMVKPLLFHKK
Source text: The data plotted in FIG. 5 were obtained by performing assays in accordance with the procedures outlined above to determine the effect of progesterone metabolites and the progestin R5020 on the binding of [^3 H]R5020 to the progesterone receptor in rat uterus. All points on the plot of FIG. 5 represent the mean of triplicate determinations. The following compounds are those listed in FIG. 5: 5-alpha-pregnan-3-alpha-ol-20-one (DHP), 5-alpha-pregnan-3-alpha,21-diol-20-one (Th-DOC), and 5-beta-pregnane-3-alpha,20 diol (5 BETA).

[3] = system: maximal electroshock (tonic component) in mice; parameters: unit not given here; settings: literature data; cited from earlier work
[4] = system: metrazol-induced convulsions in mice; parameters: key: NP: no protection; settings: cited from earlier work
[5] = system: (+)bicuculline-induced seizures in mice; parameters: key: NP: no protection; settings: cited from earlier work
[6] = system: picrotoxin-induced convulsions in mice; parameters: key: NP: no protection; settings: cited from earlier work
[7] = system: strychnine-induced convulsions in mice; parameters: key to STR (strychnine) ED50: NP: no protection; settings: cited from earlier work
[8] = system: mice; settings: literature data; cited from earlier work
[9] = system: mice; parameters: unit not given beside the values; settings: literature data; cited from earlier work
[10] = system: GBR complex ([35S]TBPS site); assay: dissociation kinetics of [35S]TBPS in cortical P2 homogenates; format: binding, rat
Method: An assay was performed to determine the effect of pentobarbital on the dissociation kinetics of [^35 S]TBPS in rat cerebral cortical membranes. This assay was performed in accordance with the procedures outlined above. […] Dissociation of bound [^35 S]TBPS was initiated by 2 micromolar TBPS in all cases.

[11] = system: premenstrual syndrome (PMS), PND, catamenial epilepsy patients; settings: cited from earlier work
[12] = read-out: +5 μM GABA IC50, +5 μM GABA
[13] = no added GABA (control), read-out: CONTROL IC50
[14] = chemical convulsant administered i.v., Worms et al.

## C[C@]12C[C@H](O)[C@H]3[C@@H](CCC4=CC(=O)CC[C@@]43C)[C@@H]1CC[C@@H]2C(=O)CO [4-PREGNEN-11β,21- DIOL-3,20-DIONE]
[1]
  MAXIMAL INHIBITION: 21
[1]; no added GABA (control)
  CONTROL IC50: INACTIVE
[1]; [12]
  IC50: > 100 µM

## CC(=O)[C@H]1CC[C@H]2[C@@H]3CC=C4C[C@@H](O)CC[C@]4(C)[C@H]3CC[C@]12C [5-PREGNAN-3β-OL- 20-ONE (PREGNENOLONE), 5-PREGNAN-3β-OL- 20-ONE]
[1]
  MAXIMAL INHIBITION: 30
[1]; no added GABA (control)
  CONTROL IC50: INACTIVE
[1]; [12]
  IC50: > 100 µM

## C[C@]12CC[C@@H](O)C[C@@H]1CC[C@@H]1[C@@H]2CC[C@]2(C)[C@@H](C(=O)CO)CC[C@@H]12 [5-alpha-pregnan-3-alpha,21-diol-20-one]
[2]
  affinity for the progesterone receptor: lack of affinity

## CC(O)[C@H]1CC[C@H]2[C@@H]3CC[C@@H]4C[C@H](O)CC[C@]4(C)[C@H]3CC[C@]12C (stereo partly drawn) [5-beta-pregnane-3-alpha,20 diol (5 BETA), 5-beta-pregnane-3-alpha,20 diol]
[2]
  affinity for the progesterone receptor: lack of affinity

## C[C@]12CC[C@@H](O)C[C@@H]1CC[C@@H]1[C@@H]2CC[C@]2(C)[C@@H](O)CC[C@@H]12 [5α-ANDROSTAN-3α, 17β-DIOL]
[1]
  MAXIMAL INHIBITION: 100

## C[C@]12CCC(=O)C[C@@H]1CC[C@@H]1[C@@H]2CC[C@]2(C)[C@@H](O)CC[C@@H]12 [5α-ANDROSTAN-17β- OL-3-ONE]
[1]
  MAXIMAL INHIBITION: 52
[1]; [13]
  IC50: > 100 µM

## CC(O)[C@H]1CC[C@H]2[C@@H]3CC[C@H]4C[C@H](O)CC[C@]4(C)[C@H]3CC[C@]12C (stereo partly drawn) [5α-PREGNAN-3α,20- DIOL ([…]), 5α-PREGNAN-3α,20- DIOL]
[1]
  MAXIMAL INHIBITION: 52
[1]; [13]
  IC50: 0.359 µM
[1]; [12]
  IC50: 0.082 µM

## C[C@]12CC[C@@H](O)C[C@@H]1CC[C@H]1[C@@H]3CC[C@H](C(=O)CO)[C@@]3(C)CC(=O)[C@@H]12 [5α-PREGNAN-3α-21- DIOL-11,20-DIONE]
[1]; [13]
  IC50: > 100 µM

## CC(=O)[C@H]1CC[C@H]2[C@@H]3CC[C@H]4C[C@@H](O)CC[C@]4(C)[C@H]3CC[C@]12C [5α-PREGNAN-3β-OL- 20-ONE]
[1]
  MAXIMAL INHIBITION: 33
[1]; no added GABA (control)
  CONTROL IC50: INACTIVE
[1]; [12]
  IC50: > 100 µM

## C[C@]12CC[C@@H]3c4ccc(O)cc4CC[C@H]3[C@@H]1CC[C@@H]2O [17β-ESTRADIOL]
[1]
  MAXIMAL INHIBITION: 0
[1]; +5 μM GABA
  +5 μM GABA IC50: INACTIVE
[1]; no added GABA (control)
  CONTROL IC50: INACTIVE

## CC(C)CCC[C@@H](C)[C@H]1CC[C@H]2[C@@H]3CC=C4C[C@@H](O)CC[C@]4(C)[C@H]3CC[C@]12C [CHOLESTEROL]
[1]
  MAXIMAL INHIBITION: 0
[1]; +5 μM GABA
  +5 μM GABA IC50: INACTIVE
[1]; no added GABA (control)
  CONTROL IC50: INACTIVE

## O=C1CN=C(c2ccccc2Cl)c2cc([N+](=O)[O-])ccc2N1 [Clonazepam]
[3]
  MES (maximal electroshock) ED50: 93
[4]; Swinyard & Woodhead
  MTZ (metrazol) ED50: 0.009
[5]; Swinyard & Woodhead
  BIC (bicuculline) ED50: 0.0086
[6]; Swinyard & Woodhead
  PICRO (picrotoxin) ED50: 0.043
[7]; Swinyard & Woodhead
  STR (strychnine) ED50: NP
[8]
  Rotorod (RR) ED50: 0.184
[9]
  LD50: > 6000

## NCCCC(=O)O [GABA, gamma-aminobutyric acid]
[1]; (+)-bicuculline 0.5-3.0 micromolar, FIGS. 1A and 1B
  shift in dose-response curve for [35S]TBPS binding induced by (+)-bicuculline: classical parallel shift

## CCCC(C)C1(CC)C(=O)NC(=O)NC1=O (stereo not drawn) [Na pentobarbital]
[10]; (**P < 0.01 vs control), alphaxalone 300 nM, 3a-OH-DHP 20 nM
  Total percentage of specific sites, rapidly dissociating (R): 48 ± 6 percentage
[10]; (*P < 0.05 vs control), alphaxalone 300 nM, 3a-OH-DHP 20 nM
  Total percentage of specific sites, slowly dissociating (S): 61 ± 6 percentage
[10]; [35S]TBPS dissociation, alphaxalone 300 nM, 3a-OH-DHP 20 nM
  k-1, rapidly dissociating component (R): 0.158 min⁻¹
[10]; [35S]TBPS dissociation, pentobarbital 30 nM [sic], alphaxalone 300 nM, 3a-OH-DHP 20 nM
  k-1, slowly dissociating component (S): 0.0186 min⁻¹
[10]; pentobarbital 30 micromolar, alphaxalone 300 nanomolar, 5-alpha-pregnan-3-alpha-hydroxy-20-one 20 nanomolar
  effect on dissociation mechanism/kinetics of [35S]TBPS (in words): induces a biphasic dissociation mechanism

## CC(=O)[C@H]1CC[C@H]2[C@@H]3CCC4=CC(=O)CC[C@]4(C)[C@H]3CC[C@]12C [PROGESTERONE]
[1]
  MAXIMAL INHIBITION: 100
[1]; in vitro
  potency/efficacy/affinity at the GBR complex (in words): very low potency
[1]; [13]
  IC50: > 100 µM
[11]; Maddocks et al.
  dose-response relationship in the treatment of PMS: no dose-response relationship exists
[11]; literature
  clinical effectiveness in PMS, PND, catamenial epilepsy: not consistently effective

## CCC1(c2ccccc2)C(=O)NC(=O)NC1=O [Phenobarbital]
[3]
  MES (maximal electroshock) ED50: 22
[4]; Swinyard & Woodhead
  MTZ (metrazol) ED50: 13
[5]; Swinyard & Woodhead
  BIC (bicuculline) ED50: 38
[6]; Swinyard & Woodhead
  PICRO (picrotoxin) ED50: 28
[7]; Swinyard & Woodhead
  STR (strychnine) ED50: 95
[8]
  Rotorod (RR) ED50: 69
[9]
  LD50: 265

## O=C1NC(=O)C(c2ccccc2)(c2ccccc2)N1 [Phenytoin]
[4]; Swinyard & Woodhead
  MTZ (metrazol) ED50: NP
[5]; Swinyard & Woodhead
  BIC (bicuculline) ED50: NP
[6]; Swinyard & Woodhead
  PICRO (picrotoxin) ED50: NP
[7]; at 55-100 mg/kg
  Maximum protection (strychnine): 50%
[9]
  LD50: 230

## NC(=O)CCC/N=C(\c1ccc(Cl)cc1)c1cc(F)ccc1O [Progabide]
[3]
  MES (maximal electroshock) ED50: 75
[4]; [14]
  MTZ (metrazol) ED50: 30
[5]; [14]
  BIC (bicuculline) ED50: 30
[6]; [14]
  PICRO (picrotoxin) ED50: 105
[7]; [14]
  STR (strychnine) ED50: 75
[9]
  LD50: 3000

## CCCC(CCC)C(=O)O [Valproate]
[3]
  MES (maximal electroshock) ED50: 272
[4]; Swinyard & Woodhead
  MTZ (metrazol) ED50: 149
[5]; Swinyard & Woodhead
  BIC (bicuculline) ED50: 360
[6]; Swinyard & Woodhead
  PICRO (picrotoxin) ED50: 387
[7]; Swinyard & Woodhead
  STR (strychnine) ED50: 293
[9]
  LD50: 1105
